Assay results reported in patent publication EP4813978A1, “COMPOUND TARGETING UBIQUITIN KRAS PROTEIN DEGRADATION AGENT, AND USE THEREOF” (Betta Pharmaceuticals Co., Ltd, priority 2023, dated 2025).

Legend:
[1] = system: HCT116; test: Cell proliferation assay (Cell-titer Glo), HCT116; assay type: cell-based; settings: Homo sapiens, HCT-116, HCT116, KRAS G13D, 96 h
Experimental: (§1) Cells with different mutations were seeded in low-attachment transparent 96-well plates at the seeding densities shown in Table 1, and incubated overnight in a cell culture incubator. After the cells adhered, the test compounds were added to the 96-well plates at final concentrations of 20000 nM, 5000 nM, 1250 nM, 312.5 nM, 78.13 nM, 19.53 nM, 4.88 nM, 1.22 nM, 0.31 nM, 0 nM (the final concentration of DMSO was 0.25% in all wells). After culturing at 37°C for 96 h, 50 µL of Cell-titer Glo working solution was added to each well. The plates were shaken to mix and then incubated at room temperature for 10 min. Luminescence values were read on a multimode microplate reader, and the luminescence data were converted into percentage inhibition. The percentage of cell proliferation inhibition was calculated according to the following formula: Percentage inhibition = (1−(TestValue−Blank)/(MaxValue−Blank)) × 100% [formula]
(§2) ("Max value" is from the 0.25% DMSO control wells, "Blank" is from the blank medium control wells, and "Test Value" is from the compound-treated wells).
(§3) Curve fitting was performed using GraphPad Prism software to obtain IC50 (nM) values.

[2] = system: AGS; test: Cell proliferation assay (Cell-titer Glo), AGS; assay type: cell-based; settings: Homo sapiens, KRAS G12D, 96 h
Experimental: as §1, §2, §3

[3] = PK study in SD rats, intravenous single administration; assay type: in vivo; settings: male, 3 mg/kg
Experimental: (§4) Compound 115 was mixed with the vehicle 10% DMSO/5% Solutol/85% physiological saline, vortexed and sonicated to prepare a 1.5 mg/mL clear solution. Male SD rats aged 6 to 7 weeks were selected, fasted for 8 h, and then administered Compound 115 intravenously. Whole blood was collected at certain time points. Drug concentrations were analyzed by LC-MS/MS method, and pharmacokinetic parameters were calculated using Phoenix WinNonlin software (Pharsight, USA). Table 4. Rat PK data for intravenous single administration of Compound 115

[4] = PK study in ICR mice, intravenous single administration; assay type: in vivo; settings: female, 3 mg/kg
Experimental: as §4, with “0.6” for “1.5”, “Female ICR mice” for “Male SD rats”, “not fasted,” for “fasted for 8 h,”, “and” for “and then”, “3. Mouse” for “4. Rat”

[5] = system: AsPC-1; test: Cell proliferation assay (Cell-titer Glo), AsPC-1; assay type: cell-based; settings: Homo sapiens, ASPC1, AsPC-1, KRAS G12D, 96 h
Experimental: as §1, §2, §3

[6] = system: MKN-1; test: Cell proliferation assay (Cell-titer Glo), MKN-1; assay type: cell-based; settings: Homo sapiens, MKN-1, KRAS WT-Amp, 96 h
Experimental: as §1, §2, §3

[7] = system: SW620; test: Cell proliferation assay (Cell-titer Glo), SW620; assay type: cell-based; settings: Homo sapiens, SW-620, SW620, KRAS G12V, 96 h
Experimental: as §1, §2, §3

[8] = system: Panc0403; test: Cell proliferation assay (Cell-titer Glo), Panc0403; assay type: cell-based; settings: Homo sapiens, Panc 04.03, Panc0403, KRAS G12D, 96 h
Experimental: as §1, §2, §3

[9] = PK study in Beagle dogs, intravenous single administration; assay type: in vivo; settings: one female and one male, 3 mg/kg
Experimental: Compound 115 was mixed with the vehicle 10% DMSO/5% Solutol/85% physiological saline, vortexed and sonicated to prepare a 1.5 mg/mL clear intravenous injection solution. Beagle dogs weighing approximately 10 kg (half male, half female) were selected, not fasted, and administered Compound 115 intravenously. Whole blood samples were collected intravenously at 5 min, 15 min, 30 min, 1 h, 2 h, 4 h, 6 h, 8 h, 10 h, 24 h, 48 h, and 72 h. Drug concentrations were analyzed by LC-MS/MS method, and pharmacokinetic parameters were calculated using Phoenix WinNonlin software (Pharsight, USA). Table 5. Beagle Dog PK data for intravenous single administration of Compound 115

CCc1c(F)ccc2cc(O)cc(-c3ncc4c(N5CCOC[C@@](C)(O)C5)nc(OCC5(CN6CCC7(CCN(Cc8cnc(-c9cn([C@H](C(=O)N%10C[C@H](O)C[C@H]%10C(=O)N[C@@H](C)c%10ccc(-c%11scnc%11C)cc%10)C(C)C)nn9)cn8)CC7)CC6)CC5)nc4c3F)c12 [Compound 115, (2S,4R)-1-((S)-2-(4-(5-((9-((1-(((7-(8-ethyl-7-fluoro-3-hydroxynaphthalen-1-yl)-8-fluoro-4-((S)-6-hydroxy-6-methyl-1,4-oxazepan-4-yl)pyrido[4,3-d]pyrimidin-2-yl)oxy)methyl)cyclopropyl)methyl)-3,9-diazaspiro[5.5]undecan-3-yl)methyl)pyrazin-2-yl)-1H-1,2,3-triazol-1-yl)-3-methylbutanoyl)-4-hydroxy-N-((S)-1-(4-(4-methylthiazol-5-yl)phenyl)ethyl)pyrrolidine-2-carboxamide]
IC50 [1]: 20 nM | IC50 [2]: 0.9 nM | Cl_obs [3]: 5.44 mL/min/kg | Vss_obs [3]: 5.06 L/kg | AUC(0-t) ([3]; rat, in vivo): 9170 ng·h/mL | C0 ([3]; rat, in vivo): 17300 ng/mL | half-life ([3]; rat, in vivo): 12.7 h | Cl_obs [4]: 13.7 mL/min/kg | Vss_obs [4]: 9.23 L/kg | AUC(0-t) ([4]; mouse, in vivo): 3710 ng·h/mL | C0 ([4]; mouse, in vivo): 7510 ng/mL | half-life ([4]; mouse, in vivo): 13.5 h | IC50 [5]: 1.9 nM | IC50 [6]: 0.7 nM | IC50 [7]: 8 nM | IC50 [8]: 5.9 nM | AUC(0-t) ([9]; dog, in vivo): 20700 ng·h/mL | C0 ([9]; dog, in vivo): 22700 ng/mL | half-life ([9]; dog, in vivo): 23.3 h | Cl_obs [9]: 1.96 mL/min/kg | Vss_obs [9]: 1.82 L/kg
